IC50 data for 28 molecules are collected here from patent US10829501B2 (BRISTOL-MYERS SQUIBB COMPANY, priority 2016, dated 2020).

Structures can show the parent of a compound that is named as a salt. Bounds are passed on as bounds.

In one test the target is ROCK2 (Homo sapiens, UniProt O75116). As to the kind of experiment: ROCK2 kinase inhibition assay (LABCHIP 3000 Reader, FITC peptide substrate).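 Further: rho kinase reaction read by separating phosphorylated from unphosphorylated peptide on chip, with inhibition of kinase activity computed per concentration across a dose-response series.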
Sequence of ROCK2 (O75116 whole entry, species assumed): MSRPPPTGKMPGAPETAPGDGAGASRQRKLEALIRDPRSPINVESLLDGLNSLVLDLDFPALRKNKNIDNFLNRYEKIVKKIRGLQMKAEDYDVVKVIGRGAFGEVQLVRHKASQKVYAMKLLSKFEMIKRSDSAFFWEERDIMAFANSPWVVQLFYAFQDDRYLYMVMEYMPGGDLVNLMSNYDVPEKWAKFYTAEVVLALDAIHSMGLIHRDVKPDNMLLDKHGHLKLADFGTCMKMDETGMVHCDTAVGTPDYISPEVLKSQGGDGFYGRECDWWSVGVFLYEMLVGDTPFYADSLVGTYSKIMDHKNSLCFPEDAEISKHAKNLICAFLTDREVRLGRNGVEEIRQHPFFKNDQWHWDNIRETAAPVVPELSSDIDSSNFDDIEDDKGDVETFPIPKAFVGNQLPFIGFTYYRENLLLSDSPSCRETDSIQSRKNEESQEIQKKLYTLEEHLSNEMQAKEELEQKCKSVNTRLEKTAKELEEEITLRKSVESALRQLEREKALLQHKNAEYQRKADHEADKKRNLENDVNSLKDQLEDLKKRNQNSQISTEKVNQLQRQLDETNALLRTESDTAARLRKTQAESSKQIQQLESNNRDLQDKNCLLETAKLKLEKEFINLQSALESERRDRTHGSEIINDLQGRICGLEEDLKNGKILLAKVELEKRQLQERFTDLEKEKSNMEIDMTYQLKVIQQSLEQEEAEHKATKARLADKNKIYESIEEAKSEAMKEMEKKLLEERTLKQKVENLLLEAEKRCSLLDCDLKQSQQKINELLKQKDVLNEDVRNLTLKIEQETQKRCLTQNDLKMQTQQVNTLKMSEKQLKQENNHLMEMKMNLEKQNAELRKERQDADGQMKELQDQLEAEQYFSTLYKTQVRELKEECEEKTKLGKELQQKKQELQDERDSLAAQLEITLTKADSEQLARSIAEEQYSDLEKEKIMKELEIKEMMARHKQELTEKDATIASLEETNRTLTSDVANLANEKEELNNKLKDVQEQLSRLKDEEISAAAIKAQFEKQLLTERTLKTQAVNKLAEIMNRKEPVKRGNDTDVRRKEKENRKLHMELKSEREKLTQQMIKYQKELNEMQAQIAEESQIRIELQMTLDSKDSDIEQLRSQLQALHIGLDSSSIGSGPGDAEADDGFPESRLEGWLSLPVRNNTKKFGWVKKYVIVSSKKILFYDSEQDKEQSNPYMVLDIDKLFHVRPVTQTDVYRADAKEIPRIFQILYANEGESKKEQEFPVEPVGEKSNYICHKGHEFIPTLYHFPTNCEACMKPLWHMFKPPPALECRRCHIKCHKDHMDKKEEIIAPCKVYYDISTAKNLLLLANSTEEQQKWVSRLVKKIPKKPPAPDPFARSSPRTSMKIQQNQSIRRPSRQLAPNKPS
Conditions: not given
In the case of `COc1ccc(C(N)=O)c(OC2CC3(CC(NC(=O)c4cnn5cc(OCC(C)(C)O)ccc45)C3)C2)c1` (stereo not shown) [Example 210, N-(6-(2-carbamoyl-5-methoxyphenoxy)spiro[3.3]heptan-2-yl)-6-(2-hydroxy-2-methylpropoxy)pyrazolo[1,5-a]pyridine-3-carboxamide], the IC50 lay within 0.005 to 0.05 µM. As for `[H][C@]1(Oc2ncccc2C(N)=O)C[C@@]2(C[C@H](NC(=O)c3cnn4c(Br)c(OCC(C)(F)F)ccc34)C2)C1` (stereo partly drawn) [Example 307, 7-bromo-N-((aR)-6-((3-carbamoylpyridin-2-yl)oxy)spiro[3.3]heptan-2-yl)-6-(2,2-difluoropropoxy)pyrazolo[1,5-a]pyridine-3-carboxamide], the IC50 is 0.005 to 0.05 µM. The same measure, in the same setting: in the case of `CC(C)(O)COc1ccc2c(C(=O)NC3CC4(C3)CC(Oc3cc(-c5cccc(S(C)(=O)=O)c5)ccc3C(N)=O)C4)cnn2c1` (stereo not shown) [Example 284, N-(6-((4-carbamoyl-3′-(methylsulfonyl)-[1,1′-biphenyl]-3-yl)oxy)spiro[3.3]heptan-2-yl)-6-(2-hydroxy-2-methylpropoxy)pyrazolo[1,5-a]pyridine-3-carboxamide] it was under 0.005 µM; in that of `NC(=O)c1cccnc1O[C@H]1CC2(C[C@H](NC(=O)c3cnn4cc(N5CCOCC5)ccc34)C2)C1` (stereo partly drawn) [Example 317, N-((aR)-6-((3-carbamoylpyridin-2-yl)oxy)spiro[3.3]heptan-2-yl)-6-morpholinopyrazolo[1,5-a]pyridine-3-carboxamide], 0.005 to 0.05 µM. As to `Cc1nc(N2CCC(F)(F)C2)sc1C(=O)N[C@H]1CC2(C1)C[C@H](Oc1ncccc1C(N)=O)C2` (stereo partly drawn) [Example 92, N-((aR)-6-((3-carbamoylpyridin-2-yl)oxy)spiro[3.3]heptan-2-yl)-2-(3,3-difluoropyrrolidin-1-yl)-4-methylthiazole-5-carboxamide, trifluoroacetate], the IC50 was 0.05 to 0.25 µM. For `COc1ccc(OC2CC3(CC(NC(=O)c4cnn5cc(OCC(C)(C)O)ccc45)C3)C2)c(C(N)=O)c1` (stereo not shown) [Example 212, N-(6-(2-carbamoyl-4-methoxyphenoxy)spiro[3.3]heptan-2-yl)-6-(2-hydroxy-2-methylpropoxy)pyrazolo[1,5-a]pyridine-3-carboxamide], the 50% inhibitory concentration (IC50) was 0.25 to 2.5 µM. In the case of `NC(=O)c1cccnc1O[C@H]1CC2(C[C@H](NC(=O)c3ncoc3-c3ccccc3)C2)C1` (stereo partly drawn) [Example 165, N-((aR)-6-((3-carbamoylpyridin-2-yl)oxy)spiro[3.3]heptan-2-yl)-5-phenyloxazole-4-carboxamide], the IC50 was in the range of 0.05 to 0.25 µM. For the molecule `[H][C@]1(Oc2ncccc2C(N)=O)C[C@@]2(C[C@H](NC(=O)c3nn(CC(C)(C)O)c4cc(-c5cnn(C)c5)ccc34)C2)C1` (stereo partly drawn) [Example 46, N-((aR)-6-((3-carbamoylpyridin-2-yl)oxy)spiro[3.3]heptan-2-yl)-1-(2-hydroxy-2-methylpropyl)-6-(1-methyl-1H-pyrazol-4-yl)-1H-indazole-3-carboxamide], the IC50 is under 0.005 µM. In the case of `CC(C)(O)COc1ccc2c(C(=O)NC3CC4(C3)CC(Oc3cc(-c5ccccc5F)ccc3C(N)=O)C4)cnn2c1` (stereo not shown) [Example 229, N-(6-((4-carbamoyl-2′-fluoro-[1,1′-biphenyl]-3-yl)oxy)spiro[3.3]heptan-2-yl)-6-(2-hydroxy-2-methylpropoxy)pyrazolo[1,5-a]pyridine-3-carboxamide], the IC50 fell in the range of 0.005 to 0.05 µM. Same read-out and setting: in the case of `CC(C)(O)COc1ccn2c(C(=O)N[C@H]3CC4(C3)C[C@H](Oc3ncccc3C(N)=O)C4)cnc2c1C1CC1` (stereo partly drawn) [Example 65, N-((aR)-6-((3-carbamoylpyridin-2-yl)oxy)spiro[3.3]heptan-2-yl)-8-cyclopropyl-7-(2-hydroxy-2-methylpropoxy) imidazo[1,2-a]pyridine-3-carboxamide, trifluoroacetate] it was under 0.005 µM; in that of `COc1cccc(-c2ccc(C(N)=O)c(OC3CC4(CC(NC(=O)c5cnn6cc(OCC(C)(C)O)ccc56)C4)C3)c2)n1` (stereo not shown) [Example 235, N-(6-(2-carbamoyl-5-(6-methoxypyridin-2-yl)phenoxy)spiro[3.3]heptan-2-yl)-6-(2-hydroxy-2-methylpropoxy)pyrazolo[1,5-a]pyridine-3-carboxamide], 0.005 to 0.05 µM; in that of `CC(C)(O)COc1ccc2c(C(=O)NC3CC4(C3)CC(Oc3cc(-c5ccncc5)ccc3C(N)=O)C4)cnn2c1` (stereo not shown) [Example 225, N-(6-(2-carbamoyl-5-(pyridin-4-yl)phenoxy)spiro[3.3]heptan-2-yl)-6-(2-hydroxy-2-methylpropoxy)pyrazolo[1,5-a]pyridine-3-carboxamide], 0.005 to 0.05 µM. Same read-out and setting: in the case of `NC(=O)c1cccnc1O[C@H]1CC2(C[C@H](NC(=O)c3nc(-c4nc5ccccc5s4)cs3)C2)C1` (stereo partly drawn) [Example 144, 4-(benzo[d]thiazol-2-yl)-N-((aR)-6-((3-carbamoylpyridin-2-yl)oxy)spiro [3.3]heptan-2-yl)thiazole-2-carboxamide, trifluoroacetate] it was 0.25 to 2.5 µM; in that of `NC(=O)c1cccnc1OC1CC2(CC(NC(=O)c3cn(-c4ccccc4)nn3)C2)C1` [Example 389, N-[(aR)2-({6-(1-phenyl-1H-1,2,3-triazole)-4-carboxamido]spiro[3.3]heptan-2-yl}oxy)nicotinamide], 0.05 to 0.25 µM. In the case of `[H][C@]1(Oc2ncccc2C(N)=O)C[C@@]2(C[C@H](NC(=O)c3nn(C(C)(C)C(N)=O)c4cc(-c5cnn(C)c5)ccc34)C2)C1` (stereo partly drawn) [Example 408, 1-(1-amino-2-methyl-1-oxopropan-2-yl)-N-((aR)-6-((3-carbamoylpyridin-2-yl)oxy)spiro[3.3]heptan-2-yl)-6-(1-methyl-1H-pyrazol-4-yl)-1H-indazole-3-carboxamide, TFA], the IC50 fell in the range of 0.005 to 0.05 µM. Regarding `CC(C)(O)COc1ccc2c(C(=O)N[C@H]3CC4(C3)C[C@H](Oc3ncccc3C(N)=O)C4)nn(C(F)F)c2c1` (stereo partly drawn) [Example 108, N-((aR)-6-((3-carbamoylpyridin-2-yl)oxy)spiro[3.3]heptan-2-yl)-1-(difluoromethyl)-6-(2-hydroxy-2-methylpropoxy)-1H-indazole-3-carboxamide, trifluoroacetate], the IC50 was under 0.005 µM. Same read-out and setting: the value for `[H][C@]1(Oc2ncccc2C(N)=O)C[C@]2(C[C@@H](NC(=O)c3cn4cc(OC)ccc4n3)C2)C1` (stereo partly drawn) [Example 464, N-((aR)-6-((3-carbamoylpyridin-2-yl)oxy)spiro[3.3]heptan-2-yl)-6-methoxyimidazo[1,2-a]pyridine-2-carboxamide, TFA Salt] was 0.25 to 2.5 µM; that for `CN(c1ccccc1)S(=O)(=O)c1cccc(C(=O)N[C@H]2CC3(C2)C[C@H](Oc2ncccc2C(N)=O)C3)c1` (stereo partly drawn) [Example 131, 2-(((aR)-6-(3-(N-methyl-N-phenylsulfamoyl)benzamido)spiro[3.3]heptan-2-yl)oxy) nicotinamide, trifluoroacetate] was 0.005 to 0.05 µM.

In turn, `CC(C)(O)COc1ccc2c(C(=O)NC3CC4(C3)CC(Oc3cc(C5CC5)ccc3C(N)=O)C4)cnn2c1C1CC1` (stereo not shown) [Example 274, N-(6-(2-carbamoyl-5-cyclopropylphenoxy)spiro[3.3]heptan-2-yl)-7-cyclopropyl-6-(2-hydroxy-2-methylpropoxy)pyrazolo[1,5-a]pyridine-3-carboxamide] came in with an IC50 of under 0.005 µM. On to `CC(C)(O)COc1ccc2c(C(=O)NC3CC4(C3)CC(Oc3cc(-c5cccc(C(N)=O)c5)ccc3C(N)=O)C4)cnn2c1` (stereo not shown) [Example 289, 3′-((6-(6-(2-hydroxy-2-methylpropoxy)pyrazolo[1,5-a]pyridine-3-carboxamido)spiro[3.3]heptan-2-yl)oxy)-[1,1′-biphenyl]-3,4′-dicarboxamide], for which the IC50 is under 0.005 µM. For the molecule `NC(=O)c1cccnc1O[C@H]1CC2(C[C@H](NC(=O)c3cnn4c(C5CC5)c(OCCC(F)(F)F)ccc34)C2)C1` (stereo partly drawn) [Example 107, N-((aR)-6-((3-carbamoylpyridin-2-yl)oxy)spiro[3.3]heptan-2-yl)-7-cyclopropyl-6-(3,3,3-trifluoropropoxy) pyrazolo[1,5-a]pyridine-3-carboxamide, trifluoroacetate], the IC50 lay within 0.005 to 0.05 µM.

The same test, now with this note: read-out: ROCK2 Activity (ROCK2 IC50); 5 μM ATP, 1.5 μM peptide substrate, pH 7.5.
For `Cn1cc(-c2cc(C(=O)NC3CC4(C3)CC(Oc3ncccc3C(N)=O)C4)cc(C(F)(F)F)c2)c(C(F)(F)F)n1` [Example 447, 2-(((aR)-6-(3-(1-methyl-3-(trifluoromethyl)-1H-pyrazol-4-yl)-5-(trifluoromethyl)benzamido)spiro[3.3]heptan-2-yl)oxy)nicotinamide], the IC50 lay in the range of 0.005 to 0.05 µM. Still for that read-out and setting: in the case of `NC(=O)c1cccnc1OC1CC2(CC(NC(=O)c3nc(Br)n4ccccc34)C2)C1` [Example 421, 3-bromo-N-((aR)-6-((3-carbamoylpyridin-2-yl)oxy)spiro[3.3]heptan-2-yl)imidazo[1,5-a]pyridine-1-carboxamide] it was 0.005 to 0.05 µM; in that of `Cc1c(C(=O)NC2CC3(C2)CC(Oc2ncccc2C(N)=O)C3)cnn1-c1ccc(S(C)(=O)=O)cc1` [Example 387, N-[(aR)2-({6-[1-(4-methanesulfonylphenyl)-5-methyl-1H-pyrazole-4-amido]spiro[3.3]heptan-2-yl}oxy)pyridine-3-carboxamide 1 trifluoroacetic acid salt], 0.005 to 0.05 µM; in that of `NC(=O)c1cccnc1O[C@H]1CC2(C[C@H](NC(=O)c3nn(C(F)F)c4cc(F)ccc34)C2)C1` (stereo partly drawn) [Example 103, N-((aR)-6-((3-carbamoylpyridin-2-yl)oxy)piro[3.3]heptan-2-yl-1-(difluoromethyl)-6-fluoro-1H-indazole-3-carboxamide, trifluoroacetate], under 0.005 µM. Still for that read-out and setting: the value for `NC(=O)c1cccnc1OC1CC2(CC(NC(=O)c3nc(C(F)F)n4cc(N5CCN[C@H](CO)C5)ccc34)C2)C1` (stereo partly drawn) [Example 455, N-((aR)-6-((3-carbamoylpyridin-2-yl)oxy)spiro[3.3]heptan-2-yl)-3-(difluoromethyl)-6-((S)-3-(hydroxymethyl)piperazin-1-yl)imidazo[1,5-a]pyridine-1-carboxamide] was 0.005 to 0.05 µM; that for “2-(((aR)-6-(3-cyano- 5-(1-methyl- 1H-pyrazol-4- yl)benzamido) spiro[3.3]heptan-2- yl)oxy)nicotinamide [Example 195]” was under 0.005 µM. `Cc1ncc(-c2cc(C(=O)NC3CC4(C3)CC(Oc3ncccc3C(N)=O)C4)cc(C(F)(F)F)c2)s1` [Example 446, 2-(((aR)-6-(3-(2-methylthiazol-5-yl)-5-(trifluoromethyl)benzamido)spiro[3.3]heptan-2-yl)oxy)nicotinamide]: the 50% inhibitory concentration (IC50) is under 0.005 µM.

A word on the IC50: it is the concentration that gives 50% inhibition.
